The values that follow come from ChEMBL document CHEMBL4257535, “Design, synthesis and biological evaluation of AKT inhibitors bearing a piperidin-4-yl appendant” (Medchemcomm, 2018).

For test [1], the target named is RAC-alpha serine/threonine-protein kinase (Homo sapiens, UniProt P31749). Description: Inhibition of AKT1 (unknown origin) at 0.1 uM using biotin-labelled STK as substrate measured after 45 mins by HTRF method relative to control. (In general: Time-resolved FRET reads energy transfer from a long-lived donor to a nearby acceptor.)
In test [2] the test system is PC-3. Description: Antiproliferative activity against human PC3 cells after 72 hrs by MTT assay. The test is classed as functional, cell-based. Particulars: PC-3, 72 h. (In general: Formazan colour is commonly taken as a measure of viable cells.)
Test [3] concerns the target T1, Aurora kinase A (Homo sapiens) (UniProt O14965).
T1 sequence (whole entry): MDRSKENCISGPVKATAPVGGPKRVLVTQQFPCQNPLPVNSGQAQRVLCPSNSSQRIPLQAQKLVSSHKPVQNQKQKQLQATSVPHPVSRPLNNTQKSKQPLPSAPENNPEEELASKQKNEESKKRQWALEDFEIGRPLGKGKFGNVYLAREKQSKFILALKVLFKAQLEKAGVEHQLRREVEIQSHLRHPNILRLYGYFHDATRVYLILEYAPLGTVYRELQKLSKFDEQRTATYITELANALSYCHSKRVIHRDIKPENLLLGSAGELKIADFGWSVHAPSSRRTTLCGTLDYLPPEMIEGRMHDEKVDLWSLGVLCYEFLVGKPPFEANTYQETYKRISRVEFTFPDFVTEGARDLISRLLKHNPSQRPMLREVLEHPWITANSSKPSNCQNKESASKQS
Description: Inhibition of Aurora A (unknown origin) at 1 uM after 40 mins by scintillation counting method relative to control.

Test [4] addresses Ribosomal protein S6 kinase alpha-1 (Homo sapiens) (UniProt Q15418). Briefly: Inhibition of RSK1 (unknown origin) at 1 uM after 40 mins by scintillation counting method relative to control.
The target in test [5] is Ribosomal protein S6 kinase (Homo sapiens) (UniProt P51812+Q9UBS0+O75676+Q15349+O75582+P23443+Q9UK32+Q15418). Description: Inhibition of p70S6K (unknown origin) at 1 uM after 40 mins by scintillation counting method relative to control. The test is classed as protein assay.
The target of test [6] is Cyclin-dependent kinase 1 (Homo sapiens) (UniProt P06493). Description: Inhibition of CDK1 (unknown origin) at 1 uM after 40 mins by scintillation counting method relative to control.
Test [7] concerns the target T2, 3-phosphoinositide-dependent protein kinase 1 (Homo sapiens) (UniProt O15530).
T2 sequence (whole entry): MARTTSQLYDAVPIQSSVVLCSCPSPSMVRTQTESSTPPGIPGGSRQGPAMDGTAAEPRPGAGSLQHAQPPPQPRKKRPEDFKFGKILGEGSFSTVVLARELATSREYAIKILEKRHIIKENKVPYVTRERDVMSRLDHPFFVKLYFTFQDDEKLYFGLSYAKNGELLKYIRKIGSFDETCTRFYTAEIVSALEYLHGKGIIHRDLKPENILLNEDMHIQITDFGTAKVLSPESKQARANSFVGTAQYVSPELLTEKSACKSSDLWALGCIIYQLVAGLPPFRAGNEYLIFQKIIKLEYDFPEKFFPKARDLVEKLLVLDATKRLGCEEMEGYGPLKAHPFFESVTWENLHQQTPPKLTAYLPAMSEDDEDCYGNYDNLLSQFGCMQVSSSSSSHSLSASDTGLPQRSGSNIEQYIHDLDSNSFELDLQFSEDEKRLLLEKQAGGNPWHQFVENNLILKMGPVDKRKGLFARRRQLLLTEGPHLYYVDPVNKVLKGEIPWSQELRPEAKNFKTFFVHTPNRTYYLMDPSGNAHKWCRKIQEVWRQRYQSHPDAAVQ
Briefly: Inhibition of PDK1 (unknown origin) at 1 uM after 40 mins by scintillation counting method relative to control.

Test [8] addresses Protein kinase C alpha type (Homo sapiens) (UniProt P17252). Description: Inhibition of PKCalpha (unknown origin) at 1 uM after 40 mins by scintillation counting method relative to control.
In test [9] the target is Rho-associated protein kinase 1 (Homo sapiens) (UniProt Q13464). Description: Inhibition of ROCK1 (unknown origin) at 1 uM after 40 mins by scintillation counting method relative to control.
Test [10] has as its system PC-3. Description: Induction of apoptosis in human PC3 cells assessed as live cells at 5 uM after 48 hrs by Annexin V-FITC/propidium iodide staining based flow cytometry (reference value: 97.19%). Format: functional. (In general: Flow cytometry measures light scatter and fluorescence of single cells or particles in a stream.)

Calls of active or inactive are those of the source. No cut-off for these calls is given here.

Sequence of Rho-associated protein kinase 1 (Homo sapiens) (Q13464 2-1354 limits assumed): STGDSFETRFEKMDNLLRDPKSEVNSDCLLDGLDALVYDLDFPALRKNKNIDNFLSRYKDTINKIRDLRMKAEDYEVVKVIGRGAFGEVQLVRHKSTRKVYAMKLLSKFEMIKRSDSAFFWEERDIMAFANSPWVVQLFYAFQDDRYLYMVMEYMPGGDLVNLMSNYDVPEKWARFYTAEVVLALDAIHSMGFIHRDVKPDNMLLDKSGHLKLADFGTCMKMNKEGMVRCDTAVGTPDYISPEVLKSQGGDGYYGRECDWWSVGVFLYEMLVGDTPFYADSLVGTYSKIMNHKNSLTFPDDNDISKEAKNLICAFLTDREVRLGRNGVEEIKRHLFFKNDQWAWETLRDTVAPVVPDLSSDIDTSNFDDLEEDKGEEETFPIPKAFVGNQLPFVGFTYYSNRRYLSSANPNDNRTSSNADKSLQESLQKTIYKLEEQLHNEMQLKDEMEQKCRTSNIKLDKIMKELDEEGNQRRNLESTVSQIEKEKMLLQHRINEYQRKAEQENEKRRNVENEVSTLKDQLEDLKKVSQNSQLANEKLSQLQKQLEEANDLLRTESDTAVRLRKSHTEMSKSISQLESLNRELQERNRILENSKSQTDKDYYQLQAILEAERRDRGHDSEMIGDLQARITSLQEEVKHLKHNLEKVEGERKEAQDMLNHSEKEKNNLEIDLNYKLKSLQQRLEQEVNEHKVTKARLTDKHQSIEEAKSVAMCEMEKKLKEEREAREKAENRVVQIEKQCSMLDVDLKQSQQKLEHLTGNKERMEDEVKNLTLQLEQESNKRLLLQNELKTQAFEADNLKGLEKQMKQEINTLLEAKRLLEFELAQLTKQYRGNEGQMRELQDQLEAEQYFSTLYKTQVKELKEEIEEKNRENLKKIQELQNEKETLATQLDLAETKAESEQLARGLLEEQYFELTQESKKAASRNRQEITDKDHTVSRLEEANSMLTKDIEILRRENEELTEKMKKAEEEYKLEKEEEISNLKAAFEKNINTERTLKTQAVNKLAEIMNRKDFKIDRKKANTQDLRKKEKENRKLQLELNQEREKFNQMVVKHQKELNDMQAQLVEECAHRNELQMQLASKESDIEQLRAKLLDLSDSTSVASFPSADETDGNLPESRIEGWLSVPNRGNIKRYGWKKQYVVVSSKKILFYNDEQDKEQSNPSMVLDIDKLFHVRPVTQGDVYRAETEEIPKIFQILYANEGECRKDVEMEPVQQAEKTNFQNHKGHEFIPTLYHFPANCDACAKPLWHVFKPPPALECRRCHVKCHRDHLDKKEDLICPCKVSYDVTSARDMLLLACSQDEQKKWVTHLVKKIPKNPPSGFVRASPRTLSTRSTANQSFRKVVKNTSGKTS
Sequence of Ribosomal protein S6 kinase alpha-1 (Homo sapiens) (Q15418 whole entry): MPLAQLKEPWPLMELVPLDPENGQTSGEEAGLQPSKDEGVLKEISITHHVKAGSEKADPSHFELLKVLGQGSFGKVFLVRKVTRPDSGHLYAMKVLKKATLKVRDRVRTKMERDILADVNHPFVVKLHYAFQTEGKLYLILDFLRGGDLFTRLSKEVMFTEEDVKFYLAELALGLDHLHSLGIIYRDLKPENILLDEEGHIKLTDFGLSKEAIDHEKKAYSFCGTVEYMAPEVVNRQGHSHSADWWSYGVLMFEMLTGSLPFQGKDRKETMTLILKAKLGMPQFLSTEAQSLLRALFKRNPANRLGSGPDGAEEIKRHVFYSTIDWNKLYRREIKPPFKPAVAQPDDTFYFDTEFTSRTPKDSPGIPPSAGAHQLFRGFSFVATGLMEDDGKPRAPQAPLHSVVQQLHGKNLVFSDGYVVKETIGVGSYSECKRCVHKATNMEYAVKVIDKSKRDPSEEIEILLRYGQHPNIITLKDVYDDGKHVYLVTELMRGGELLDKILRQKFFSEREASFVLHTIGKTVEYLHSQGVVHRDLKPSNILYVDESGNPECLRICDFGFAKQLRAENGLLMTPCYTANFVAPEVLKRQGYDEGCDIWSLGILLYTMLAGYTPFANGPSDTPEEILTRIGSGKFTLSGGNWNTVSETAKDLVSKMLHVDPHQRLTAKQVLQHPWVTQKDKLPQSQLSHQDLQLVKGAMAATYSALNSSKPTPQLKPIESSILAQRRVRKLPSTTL
Sequence of Cyclin-dependent kinase 1 (Homo sapiens) (P06493 whole entry, looked up): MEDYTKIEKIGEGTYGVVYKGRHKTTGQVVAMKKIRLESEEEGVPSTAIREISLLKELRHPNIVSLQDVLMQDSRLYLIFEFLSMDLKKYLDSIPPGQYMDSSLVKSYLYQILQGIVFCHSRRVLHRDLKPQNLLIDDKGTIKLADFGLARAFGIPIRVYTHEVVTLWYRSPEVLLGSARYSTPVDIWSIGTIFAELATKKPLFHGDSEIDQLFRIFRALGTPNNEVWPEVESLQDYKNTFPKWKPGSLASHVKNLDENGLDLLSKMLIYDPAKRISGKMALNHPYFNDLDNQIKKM
Sequence of RAC-alpha serine/threonine-protein kinase (P31749 whole entry): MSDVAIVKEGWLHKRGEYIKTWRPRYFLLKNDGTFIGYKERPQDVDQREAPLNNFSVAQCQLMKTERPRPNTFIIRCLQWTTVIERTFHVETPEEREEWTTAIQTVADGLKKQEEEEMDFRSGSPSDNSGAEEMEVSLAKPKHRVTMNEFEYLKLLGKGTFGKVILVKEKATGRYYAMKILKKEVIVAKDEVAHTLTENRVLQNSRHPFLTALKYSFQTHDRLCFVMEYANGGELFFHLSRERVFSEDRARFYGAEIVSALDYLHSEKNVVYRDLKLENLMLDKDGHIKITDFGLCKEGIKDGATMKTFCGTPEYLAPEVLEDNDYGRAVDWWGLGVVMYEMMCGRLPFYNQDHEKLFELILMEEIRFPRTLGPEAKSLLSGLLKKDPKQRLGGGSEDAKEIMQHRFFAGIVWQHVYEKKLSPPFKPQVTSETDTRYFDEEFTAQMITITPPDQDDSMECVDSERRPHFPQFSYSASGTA

Turning to `O=C(N1CCN(c2ncnc3[nH]nc(Cl)c23)CC1)C1(c2ccc(Cl)c(Cl)c2)CCNCC1`, the inhibition amounted to 83.7% in test [1], 64% in test [3], 83% in test [4] and 99% in [5]. Further, the IC50 in the test on PC-3 [2] was determined as 3.7 µM. For the same molecule, the inhibition result in test [6], in test [7], in test [8] and in test [9] was “inactive” each time. Further, in the test with PC-3 [10], the Activity is 88.11%.

As a reminder, the inhibition is the share of the control response that was lost under treatment. A word on the IC50: it is the concentration that inhibits the measured activity by half. Low values mean inhibition by little substance, high ones a need for much substance.
